Experimental data from US20250326708A1, “LONG-ACTING SPLEEN-TARGETING CATIONIC LIPID COMPOUND COMPRISING BENZENE RING STRUCTURE, COMPOSITION COMPRISING SAME, AND USE THEREOF” (Beijing Youcarekechuang Pharmaceutical Technology Co., Ltd., priority 2024, published 2025).

Key:
[1] = Particle size and polydispersity index (PDI) of lipid nanoparticles, dynamic light scattering; type: physicochemical; details: LNP preparation with the named cationic lipid; 90° scattering angle, 25° C
From the text: (§1) The cationic lipids listed in Table 2 were each mixed with DSPC (AVT (Shanghai) Pharmaceutical Technology Co., Ltd.), cholesterol (AVT (Shanghai) Pharmaceutical Technology Co., Ltd.), and DMG-PEG2000 in a molar ratio of 49:10:39.5:1.5 and dissolved in ethanol to prepare ethanol lipid solutions. Using the ethanol injection method, the ethanol lipid solutions were quickly added to a citrate buffer (pH between 4 and 5), and vortexed for 30 seconds for later use. eGFP-mRNA (purchased from Shanghai BioHub Biotechnology Co., Ltd.), Fluc-mRNA (purchased from Shanghai BioHub Biotechnology Co., Ltd.), or Cy5 fluorescently labeled Leqvio (purchased from Sangon Biotech (Shanghai) Co., Ltd.) was diluted in a citrate buffer (pH between 4 and 5) to obtain an mRNA aqueous solution. A certain volume of the lipid solution and the mRNA aqueous solution were mixed to prepare liposomes at a total lipid-to-mRNA weight ratio of 15:1. The mixtures were sonicated at 25° C. for 15 minutes (ultrasonic frequency: 40 kHz, ultrasonic power: 800 W). The resulting liposomes were diluted 10-fold with PBS, followed by ultrafiltration using a 300 kDa ultrafiltration tube to remove ethanol. After adjusting the volume with PBS, LNP preparations encapsulating eGFP-mRNA or Fluc-mRNA were obtained, using cationic lipids, DSPC, cholesterol, and DMG-PEG2000 at a molar ratio of 49:10:39.5:1.5.
The particle size and polydispersity index (PDI) were measured using dynamic light scattering with a Malvern laser diffraction particle size analyzer.
10 μL of liposome solution was diluted to 1 mL with RNase-free deionized water and added to the sample cell. Each sample was measured three times. The measurement conditions were as follows: 90° scattering angle, 25° C.

293T cells [2] = test: Fluorescence detection of Fluc-mRNA (transfection efficiency) of LNP preparations; type: cell-based; details: for Relative light unit (RLU): LNP with 0.3 μg Fluc-mRNA, 96-well plate, 24 hours
Procedure: (§2) Cell recovery and passage: 293T cells were recovered and cultured in culture dishes. The cells were passaged until the required number of cells was obtained.
(§3) Seeding plates: The cells in culture dishes were digested and counted, then seeded in a 96-well plate at 10,000 cells per well and seeded in a 12-well plate at 150,000 cells per well. The cells were cultured overnight until cell adhesion.
as §1
(§4) Cell recovery and passage: The method was the same as described in Example 3.
(§5) Seeding plates: The method was the same as described in Example 3.
LNP preparations containing 0.3 μg of Fluc-mRNA (with the vector components of the LNP preparations of cationic lipids, DSPC, cholesterol, and DMG-PEG2000 in a molar ratio of 49:10:39.5:1.5, where the cationic lipids are those listed in Table 1) were added to the cell culture medium in a 96-well plate. After 24 hours of continued culture, the corresponding reagents were added according to the instructions in the Gaussia Luciferase Assay Kit. Fluorescence intensity in each well was detected using the IVIS fluorescence detection system. The transfection efficiency of LNP preparations prepared with a series of cationic lipid compounds designed in the present disclosure, as well as cationic lipids from the prior art, including SM-102, HHMA, MC3, compound 7, and I-1, is shown in Table 4.

293T cells [3] = test: Cell viability assay (CCK-8) with LNP preparations of Fluc-mRNA; type: cell-based; details: LNP with 1.5 μg Fluc-mRNA, 24 hours, CCK-8
Procedure: as §2, §3, §1, §4, §5
LNP preparations containing 1.5 μg of Fluc-mRNA (with the vector components of the LNP preparations of cationic lipids, DSPC, cholesterol, and DMG-PEG2000 in a molar ratio of 49:10:39.5:1.5, where the cationic lipids are those listed in Table 1) were added to the cell culture medium in a 96-well plate. After 24 hours of continued culture, 10 μL of CCK-8 solution was added to each well, and the culture plate was incubated in an incubator for 1 hour.

female BALB/C mice [4] = test: Expression of delivered mRNA in mice in vivo (IVIS in vivo imaging); details: 10 μg Fluc-mRNA via tail vein
Procedure: LNP preparations containing 10 μg of Fluc-mRNA were injected via the tail vein into female BALB/C mice (4 to 6 weeks old, weighing 17 to 19 g). At specified time points after administration (6 h, 24 h, 48 h, and 7 d), the mice were intraperitoneally injected with fluorescent imaging substrates and allowed to move freely for 5 minutes. The average radiation intensity (corresponding to fluorescence intensity) of proteins expressed by the mRNA delivered by the LNP preparations in the mice in vivo was then detected using the IVIS Spectrum small-animal in vivo imaging system.

female BALB/C mice [5] = test: Expression of delivered mRNA in different organs of mice (organ imaging); type: in vivo
Procedure: LNP preparations containing 5 μg of Fluc-mRNA were subcutaneously injected into female BALB/C mice (4 to 6 weeks old, weighing 17 to 19 g). At specified time points after administration (6 h), the mice were intraperitoneally injected with fluorescent imaging substrates and allowed to move freely for 5 minutes. The average radiation intensity (corresponding to fluorescence intensity) of proteins expressed by the mRNA delivered by the LNP preparations in the mice in vivo was then detected using the IVIS Spectrum small-animal in vivo imaging system. After sampling, the mice were killed by cervical dislocation and dissected, and the internal organs: heart, liver, spleen, lung, kidney, and lymph of mice were accurately isolated. The average radiation intensity (corresponding to fluorescence intensity) of proteins expressed by the mRNA delivered by the LNP preparations in various organs of mice was then detected using the IVIS Spectrum small-animal in vivo imaging system.

[6] = 6 hours after 5 μg Fluc-mRNA subcutaneously

CCCCCCCCC(CCCCCC)COC(=O)CCCCCN(CCCCCC(=O)OCC(CCCCCC)CCCCCCCC)CCN(CCO)c1ccccc1 (centres unmarked) [Compound 7, bis(2-hexyldecyl) 6,6′-((2-((2-hydroxyethyl) (phenyl)amino)ethyl)azanediyl)dihexanoate, reference compound]
PDI [1]: 14.3% | Particle size [1]: 162 nm | Relative light unit (RLU) (293T cells [2]): 257490 RLU | Cell viability (293T cells [3]): 73% | Average radiation intensity, in vivo imaging (female BALB/C mice [4]; 6 h): 1847654 | Average radiation intensity, in vivo imaging (female BALB/C mice [4]; 24 h): 185473 | Average radiation intensity, in vivo imaging (female BALB/C mice [4]; 48 h): 96543 | Average radiation intensity, in vivo imaging (female BALB/C mice [4]; 7 d): 8511

CCCCCCCCCCCCC(O)CN(C)CCCCCC(=O)OCC(CCCCCC)CCCCCCCC (centres unmarked) [HHMA, reference compound]
PDI [1]: 16.3% | Particle size [1]: 146 nm | Relative light unit (RLU) (293T cells [2]): 1011156 RLU | Cell viability (293T cells [3]): 77%

CCCCCCCCC(CCCCCC)COC(=O)CCCCCN(CCCCCC(=O)OCC(CCCCCC)CCCCCCCC)CCCCC(=O)OCc1ccccc1.I (centres unmarked) [I-1, bis(2-hexyldecyl) 6,6′-((5-(benzyloxy)-5-oxopentyl)azanediyl)dihexanoate, reference compound]
PDI [1]: 16.2% | Particle size [1]: 158 nm | Relative light unit (RLU) (293T cells [2]): 202730 RLU | Cell viability (293T cells [3]): 68%

CCCCC/C=C\C/C=C\CCCCCCCCC(CCCCCCCC/C=C\C/C=C\CCCCC)OC(=O)CCCN(C)C [MC3, reference compound]
PDI [1]: 15.7% | Particle size [1]: 151 nm | Relative light unit (RLU) (293T cells [2]): 94904 RLU | Cell viability (293T cells [3]): 74%

CCCCCCCCCCCOC(=O)CCCCCN(CCO)CCCCCCCC(=O)OC(CCCCCCCC)CCCCCCCC [SM-102, reference compound]
PDI [1]: 13.5% | Particle size [1]: 145 nm | Relative light unit (RLU) (293T cells [2]): 1428141 RLU | Cell viability (293T cells [3]): 82% | Average radiation intensity, in vivo imaging (female BALB/C mice [4]; 6 h): 2144435 | Average radiation intensity, in vivo imaging (female BALB/C mice [4]; 24 h): 314533 | Average radiation intensity, in vivo imaging (female BALB/C mice [4]; 48 h): 134554 | Average radiation intensity, in vivo imaging (female BALB/C mice [4]; 7 d): 9243 | Average radiation intensity of mouse organs: Heart (female BALB/C mice [5]; [6]): 0 | Average radiation intensity of mouse organs: Kidney (female BALB/C mice [5]; [6]): 0 | Average radiation intensity of mouse organs: Liver (female BALB/C mice [5]; [6]): 24365 | Average radiation intensity of mouse organs: Lung (female BALB/C mice [5]; [6]): 0 | Average radiation intensity of mouse organs: Lymph (female BALB/C mice [5]; [6]): 0 | Average radiation intensity of mouse organs: Spleen (female BALB/C mice [5]; [6]): 25547 | Expression level in the liver, times that of YK-908 (female BALB/C mice [5]; liver, 6 h, vs YK-908): 17.12 times | Expression level in the liver, times that of YK-909 (female BALB/C mice [5]; liver, 6 h, vs YK-909): 2.67 times | Expression level in the liver, times that of YK-910 (female BALB/C mice [5]; liver, 6 h, vs YK-910): 2.13 times

CCCCCCCCCCC(CCCCCCCCCC)CCCOC(=O)CCCCCNC(CO)(CO)CCc1ccc(CCCCCCCC)cc1 [YK-901, 4-decyltetradecyl 6-((1-hydroxy-2-(hydroxymethyl)-4-(4-octylphenyl)butan-2-yl)amino) hexanoate]
PDI [1]: 17.4% | Particle size [1]: 162 nm | Relative light unit (RLU) (293T cells [2]): 43423 RLU | Cell viability (293T cells [3]): 58%

CCCCCCCCCCC(CCCCCCCCCC)CCCOC(=O)CCCNC(CO)(CO)CCc1ccc(CCCCCCCC)cc1 [YK-902, 4-decyltetradecyl 4-((1-hydroxy-2-(hydroxymethyl)-4-(4-octylphenyl)butan-2-yl)amino) butanoate]
PDI [1]: 12.4% | Particle size [1]: 142 nm | Cellular transfection efficiency, times that of HHMA (293T cells [2]; Fluc-mRNA LNP, vs HHMA): 0.31 times | Cellular transfection efficiency, times that of I-1 (293T cells [2]; Fluc-mRNA LNP, vs I-1): 1.53 times | Cellular transfection efficiency, times that of MC3 (293T cells [2]; Fluc-mRNA LNP, vs MC3): 3.28 times | Cellular transfection efficiency, times that of SM-102 (293T cells [2]; Fluc-mRNA LNP, vs SM-102): 0.22 times | Cellular transfection efficiency, times that of YK-501 (293T cells [2]; Fluc-mRNA LNP, vs YK-501): 6.73 times | Cellular transfection efficiency, times that of YK-506 (293T cells [2]; Fluc-mRNA LNP, vs YK-506): 0.48 times | Cellular transfection efficiency, times that of compound 7 (293T cells [2]; Fluc-mRNA LNP, vs compound 7): 1.21 times | Relative light unit (RLU) (293T cells [2]): 311132 RLU | Cell viability (293T cells [3]): 36%

CCCCCCCCCCOC(=O)CCCNC(CO)(CO)CCc1ccc(CCCCCCCC)cc1 [YK-903, decyl 4-((1-hydroxy-2-(hydroxymethyl)-4-(4-octylphenyl)butan-2-yl)amino) butanoate]
PDI [1]: 15.1% | Particle size [1]: 152 nm | Relative light unit (RLU) (293T cells [2]): 25006 RLU | Cell viability (293T cells [3]): 47%

CCCCCCCCCCCOC(=O)CCCCCCNC(CO)(CO)CCc1ccc(CCCCCCCC)cc1 [YK-904, undecyl 7-((1-hydroxy-2-(hydroxymethyl)-4-(4-octylphenyl)butan-2-yl)amino) heptanoate]
PDI [1]: 8.2% | Particle size [1]: 112 nm | Relative light unit (RLU) (293T cells [2]): 125048 RLU | Cell viability (293T cells [3]): 52% | Average radiation intensity, in vivo imaging (female BALB/C mice [4]; 6 h): 1116384 | Average radiation intensity, in vivo imaging (female BALB/C mice [4]; 24 h): 115355 | Average radiation intensity, in vivo imaging (female BALB/C mice [4]; 48 h): 28552 | Average radiation intensity, in vivo imaging (female BALB/C mice [4]; 7 d): 3243

CCCCCCCCCCCOC(=O)CCCCCNC(CO)(CO)CCc1ccc(CCCCCCCC)cc1 [YK-905, undecyl 6-((1-hydroxy-2-(hydroxymethyl)-4-(4-octylphenyl)butan-2-yl)amino) hexanoate]
PDI [1]: 16.9% | Particle size [1]: 135 nm | Relative light unit (RLU) (293T cells [2]): 72425 RLU | Cell viability (293T cells [3]): 51%

CCCCCCCCCCOC(=O)CCCN(CCCCCC(=O)OCC(CCCCCCCC)CCCCCCCC)CCNC(CO)(CO)CCc1ccc(CCCCCCCC)cc1 [YK-906, 2-octyldecyl 6-((4-(decyloxy)-4-oxobutyl) (2-((1-hydroxy-2-(hydroxymethyl)-4-(4-octylphenyl)butan-2-yl)amino)ethyl)amino) hexanoate]
PDI [1]: 10.2% | Particle size [1]: 124 nm | Relative light unit (RLU) (293T cells [2]): 27546 RLU | Cell viability (293T cells [3]): 63%

CCCCCCCCCCCCCCNC(=O)CCCCCNC(CO)(CO)CCc1ccc(CCCCCCCC)cc1 [YK-907, 6-((1-hydroxy-2-(hydroxymethyl)-4-(4-octylphenyl)butan-2-yl)amino)-N-tetradecylhexanamide]
PDI [1]: 16.2% | Particle size [1]: 159 nm | Relative light unit (RLU) (293T cells [2]): 37699 RLU | Cell viability (293T cells [3]): 73%

CCCCCCCCc1ccc(CCC(CO)(CO)NCCCCCCC(=O)OCC(CCCCCCCC)CCCCCCCC)cc1 [YK-911, 2-octyldecyl 7-((1-hydroxy-2-(hydroxymethyl)-4-(4-octylphenyl)butan-2-yl)amino) heptanoate]
PDI [1]: 10.4% | Particle size [1]: 136 nm | Relative light unit (RLU) (293T cells [2]): 1299055 RLU | Cell viability (293T cells [3]): 62%
